Like-named read-outs stand apart in the source and are kept apart here.
Tests used:
Format in all cases: cell-based
hGIPR = biological target: T1, hGIPR (Homo sapiens, UniProt P48546); experiment: Functional cAMP formation (HTRF) in HEK-293 clonal cells expressing hGIPR, 0.1% bovine casein, without or with 1.0% human serum albumin; settings: 37° C.; for Emax: HEK293, cAMP, percent of maximal response to GIP(1-42)NH2, read-out: hGIPR Emax, % ± SEM; for EC50: cAMP, 0.1% bovine casein (no human serum albumin), geometric mean, read-out: hGIPR EC50, nM (SEM, n)
T1 construct: expressed in transfected cells
T1 sequence (P48546 22-466): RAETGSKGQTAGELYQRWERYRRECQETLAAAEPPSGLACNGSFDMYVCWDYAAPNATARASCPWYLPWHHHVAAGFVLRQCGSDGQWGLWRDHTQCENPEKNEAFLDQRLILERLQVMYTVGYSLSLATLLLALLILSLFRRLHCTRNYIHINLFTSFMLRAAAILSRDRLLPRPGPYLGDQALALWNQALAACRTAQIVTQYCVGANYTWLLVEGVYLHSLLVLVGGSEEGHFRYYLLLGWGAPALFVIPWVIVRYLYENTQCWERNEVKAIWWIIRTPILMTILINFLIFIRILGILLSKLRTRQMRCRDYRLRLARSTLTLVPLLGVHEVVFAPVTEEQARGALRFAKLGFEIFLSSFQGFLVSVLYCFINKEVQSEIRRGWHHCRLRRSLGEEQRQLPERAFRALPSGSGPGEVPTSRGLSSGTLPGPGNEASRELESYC
Outline: (§1)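 Cells were stimulated with peptide for 30 min at 37° C, then intracellular cAMP was measured by competitive HTRF (665/620 nm ratio) and converted to nM using a cAMP standard curve. Relative EC50 and Emax came from four-parameter logistic fits of percent maximal response against peptide concentration.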

hGLP-1R = hGLP-1R (Homo sapiens, UniProt P43220); experiment: Functional cAMP formation (HTRF) in HEK-293 clonal cells expressing hGLP-1R, 0.1% bovine casein, without or with 1.0% human serum albumin; design: expressed in transfected cells; settings: 37° C.; for Emax: HEK293, cAMP, percent of maximal response to GLP-1(7-36)NH2, read-out: hGLP-1R Emax, % ± SEM; for EC50: cAMP, read-out: hGLP-1R EC50, nM (SEM, n)
Sequence of hGLP-1R (P43220 24-463): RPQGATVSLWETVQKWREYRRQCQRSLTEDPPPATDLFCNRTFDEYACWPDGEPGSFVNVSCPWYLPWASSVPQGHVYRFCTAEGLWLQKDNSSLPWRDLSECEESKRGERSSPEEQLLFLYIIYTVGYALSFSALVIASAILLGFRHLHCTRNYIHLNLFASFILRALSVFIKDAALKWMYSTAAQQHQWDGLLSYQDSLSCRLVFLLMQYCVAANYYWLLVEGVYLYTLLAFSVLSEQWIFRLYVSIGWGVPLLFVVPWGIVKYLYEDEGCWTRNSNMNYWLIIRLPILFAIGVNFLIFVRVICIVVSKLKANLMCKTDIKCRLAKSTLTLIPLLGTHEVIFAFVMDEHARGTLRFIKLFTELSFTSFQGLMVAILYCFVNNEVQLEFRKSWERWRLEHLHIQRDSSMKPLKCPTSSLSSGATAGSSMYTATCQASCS
Outline: as §1

hGCGR = biological target: T2, hGCGR (Homo sapiens, UniProt P47871); experiment: Functional cAMP formation (HTRF) in HEK-293 clonal cells expressing hGCGR, 0.1% bovine casein, without or with 1.0% human serum albumin; settings: cAMP, 37° C., read-out: hGCGR EC50, nM (SEM, n)
T2 construct: expressed in transfected cells
T2 sequence (P47871 26-477): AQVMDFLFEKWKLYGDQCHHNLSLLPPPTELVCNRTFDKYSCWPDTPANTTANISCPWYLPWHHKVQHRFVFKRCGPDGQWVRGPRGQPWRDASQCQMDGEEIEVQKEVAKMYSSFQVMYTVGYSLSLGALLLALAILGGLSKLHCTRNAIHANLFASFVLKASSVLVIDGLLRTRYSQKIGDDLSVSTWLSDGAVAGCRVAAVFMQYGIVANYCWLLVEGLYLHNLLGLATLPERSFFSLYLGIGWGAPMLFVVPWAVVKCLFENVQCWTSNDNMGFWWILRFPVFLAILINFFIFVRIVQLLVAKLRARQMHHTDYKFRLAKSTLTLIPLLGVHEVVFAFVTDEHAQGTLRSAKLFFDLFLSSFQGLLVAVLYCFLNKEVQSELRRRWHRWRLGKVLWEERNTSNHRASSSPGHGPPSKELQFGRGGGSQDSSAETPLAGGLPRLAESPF
Outline: as §1

[1] = 0.1% bovine casein and 1.0% human serum albumin
[2] = 0.1% bovine casein, arithmetic mean
[3] = 0.1% bovine casein (no human serum albumin), geometric mean
[4] = 0.1% bovine casein and 1.0% human serum albumin, geometric mean (SEM, n)

`CCCCCCCCCCCC(=O)N[C@@H](CCC(=O)NCCOCCOCC(=O)NCCCC[C@H](NC(=O)[C@H](CCCN)NC(=O)[C@H](CC(=O)O)NC(=O)[C@H](CC(C)C)NC(=O)[C@](C)(CC(C)C)NC(=O)[C@@H](NC(=O)C(C)(C)NC(=O)[C@H](Cc1ccncc1)NC(=O)[C@H](CC(=O)O)NC(=O)[C@H](CO)NC(=O)[C@@H](NC(=O)[C@](C)(Cc1ccccc1F)NC(=O)[C@@H](NC(=O)CNC(=O)[C@H](CCC(=O)O)NC(=O)C(C)(C)NC(=O)[C@@H](N)Cc1ccc(O)cc1)[C@@H](C)O)[C@@H](C)O)[C@@H](C)CC)C(=O)N[C@@H](C)C(=O)N[C@@H](CCC(N)=O)C(=O)NC(C)(C)C(=O)N[C@@H](CCCCNC(=O)COCCOCCNC(=O)CC[C@H](NC(=O)CCCCCCCCCCC)C(=O)O)C(=O)N[C@@H](Cc1ccccc1)C(=O)N[C@H](C(=O)N[C@H](CCC(=O)O)C(=O)N[C@@](C)(Cc1ccc(O)cc1)C(=O)N[C@@H](CC(C)C)C(=O)N[C@H](C(=O)N[C@@H](CCC(=O)O)C(=O)NCC(=O)NCC(=O)N1CCC[C@H]1C(=O)N[C@@H](CO)C(=O)N[C@@H](CO)C(=O)NCC(=O)N[C@@H](C)C(=O)N1CCC[C@H]1C(=O)N1CCC[C@H]1C(=O)N1CCC[C@H]1C(=O)N[C@@H](CO)C(N)=O)[C@@H](C)CC)[C@@H](C)CC)C(=O)O` [Example 426] gave an Emax (hGIPR; [1]) of 91.2%, an Emax (hGIPR; [2]) of 93.3% and an EC50 (hGIPR) of 0.0191 nM. For the same compound, the Emax (hGLP-1R; [2]) was 97.2%, the EC50 (hGLP-1R; [3]) was 0.206 nM and the EC50 (hGLP-1R; [4]) was 29.7 nM. The EC50 (hGCGR; [3]) was > 9950 nM and the EC50 (hGCGR; [4]) was > 9950 nM.

`CCCCCCCCCCCC(=O)N[C@@H](CCC(=O)NCCOCCOCC(=O)NCCCC[C@H](NC(=O)[C@H](CCCN)NC(=O)[C@H](CC(=O)O)NC(=O)[C@H](CC(C)C)NC(=O)[C@](C)(CC(C)C)NC(=O)[C@@H](NC(=O)C(C)(C)NC(=O)[C@H](Cc1ccncc1)NC(=O)[C@H](CC(=O)O)NC(=O)[C@H](CO)NC(=O)[C@@H](NC(=O)[C@](C)(Cc1ccccc1F)NC(=O)[C@@H](NC(=O)CNC(=O)[C@H](CCC(=O)O)NC(=O)C(C)(C)NC(=O)[C@@H](N)Cc1ccc(O)cc1)[C@@H](C)O)[C@@H](C)O)[C@@H](C)CC)C(=O)N[C@@H](C)C(=O)N[C@@H](CCC(N)=O)C(=O)NC(C)(C)C(=O)N[C@@H](CCC(=O)O)C(=O)N[C@@H](Cc1ccccc1)C(=O)N[C@H](C(=O)N[C@H](CCC(=O)O)C(=O)N[C@@](C)(Cc1ccc(O)cc1)C(=O)N[C@@H](CC(C)C)C(=O)N[C@H](C(=O)N[C@@H](CCCCNC(=O)COCCOCCNC(=O)CC[C@H](NC(=O)CCCCCCCCCCC)C(=O)O)C(=O)NCC(=O)NCC(=O)N1CCC[C@H]1C(=O)N[C@@H](CO)C(=O)N[C@@H](CO)C(=O)NCC(=O)N[C@@H](C)C(=O)N1CCC[C@H]1C(=O)N1CCC[C@H]1C(=O)N1CCC[C@H]1C(=O)N[C@@H](CO)C(N)=O)[C@@H](C)CC)[C@@H](C)CC)C(=O)O` [Example 427] was tested, and the Emax (hGIPR; [1]) was 92.4%, the Emax (hGIPR; [2]) was 95.9% and the EC50 (hGIPR) was 0.0132 nM. For the same compound, the Emax (hGLP-1R; [1]) was 109%, the Emax (hGLP-1R; [2]) was 109% and the EC50 (hGLP-1R; [3]) was 0.206 nM. For the same compound, the EC50 (hGLP-1R; [4]) was 25.1 nM, the EC50 (hGCGR; [3]) was > 9950 nM and the EC50 (hGCGR; [4]) was > 9950 nM.

`CCCCCCCCCCCC(=O)N[C@@H](CCC(=O)NCCOCCOCC(=O)NCCCC[C@H](NC(=O)[C@H](CO)NC(=O)[C@@H]1CCCN1C(=O)[C@@H]1CCCN1C(=O)[C@@H]1CCCN1C(=O)[C@H](C)NC(=O)CNC(=O)[C@H](CO)NC(=O)[C@H](CO)NC(=O)[C@@H]1CCCN1C(=O)CNC(=O)CNC(=O)[C@H](CCC(=O)O)NC(=O)[C@@H](NC(=O)[C@H](CC(C)C)NC(=O)[C@](C)(Cc1ccc(O)cc1)NC(=O)[C@@H](CCC(=O)O)NC(=O)[C@@H](NC(=O)[C@H](Cc1ccccc1)NC(=O)[C@H](CCC(=O)O)NC(=O)C(C)(C)NC(=O)[C@H](CCC(N)=O)NC(=O)[C@H](C)NC(=O)[C@H](CCCCNC(=O)COCCOCCNC(=O)CC[C@H](NC(=O)CCCCCCCCCCC)C(=O)O)NC(=O)[C@H](CCCN)NC(=O)[C@H](CC(=O)O)NC(=O)[C@H](CC(C)C)NC(=O)[C@](C)(CC(C)C)NC(=O)[C@@H](NC(=O)C(C)(C)NC(=O)[C@H](Cc1ccncc1)NC(=O)[C@H](CC(=O)O)NC(=O)[C@H](CO)NC(=O)[C@@H](NC(=O)[C@](C)(Cc1ccccc1F)NC(=O)[C@@H](NC(=O)CNC(=O)[C@H](CCC(=O)O)NC(=O)C(C)(C)NC(=O)[C@@H](N)Cc1ccc(O)cc1)[C@@H](C)O)[C@@H](C)O)[C@@H](C)CC)[C@@H](C)CC)[C@@H](C)CC)C(N)=O)C(=O)O` [Example 428] gave an Emax (hGIPR; [1]) of 93.6%, an Emax (hGIPR; [2]) of 95.5% and an EC50 (hGIPR) of 0.00797 nM. The Emax (hGLP-1R; [1]) was 105%, the EC50 (hGLP-1R; [3]) was 0.102 nM and the EC50 (hGLP-1R; [4]) was 10.2 nM. The EC50 (hGCGR; [3]) was > 9950 nM and the EC50 (hGCGR; [4]) was > 9950 nM.

With `CCCCCCCCCCCC(=O)N[C@@H](CCC(=O)NCCOCCOCC(=O)NCCOCCOCC(=O)NCCCC[C@H](NC(=O)[C@H](CCCN)NC(=O)[C@H](CC(=O)O)NC(=O)[C@H](CC(C)C)NC(=O)[C@](C)(CC(C)C)NC(=O)[C@@H](NC(=O)C(C)(C)NC(=O)[C@H](CCCCNC(=O)COCCOCCNC(=O)COCCOCCNC(=O)CC[C@H](NC(=O)CCCCCCCCCCC)C(=O)O)NC(=O)[C@H](CC(=O)O)NC(=O)[C@H](CO)NC(=O)[C@@H](NC(=O)[C@](C)(Cc1ccccc1F)NC(=O)[C@@H](NC(=O)CNC(=O)[C@H](CCC(=O)O)NC(=O)C(C)(C)NC(=O)[C@@H](N)Cc1ccc(O)cc1)[C@@H](C)O)[C@@H](C)O)[C@@H](C)CC)C(=O)N[C@@H](C)C(=O)N[C@@H](CCC(N)=O)C(=O)NC(C)(C)C(=O)N[C@@H](CCC(=O)O)C(=O)N[C@@](C)(Cc1ccccc1)C(=O)N[C@H](C(=O)N[C@H](CCC(=O)O)C(=O)N[C@@](C)(Cc1ccc(O)cc1)C(=O)N[C@@H](CC(C)C)C(=O)N[C@H](C(=O)N[C@@H](CCC(=O)O)C(=O)NCC(=O)NCC(=O)N1CCC[C@H]1C(=O)N[C@@H](CO)C(=O)N[C@@H](CO)C(=O)NCC(=O)N[C@@H](C)C(=O)N1CCC[C@H]1C(=O)N1CCC[C@H]1C(=O)N1CCC[C@H]1C(=O)N[C@@H](CO)C(N)=O)[C@@H](C)CC)[C@@H](C)CC)C(=O)O` [Example 429] the Emax (hGIPR; [1]) was 93.3%, the EC50 (hGIPR) was 0.00799 nM and the Emax (hGLP-1R; [2]) was 116%. The EC50 (hGLP-1R; [3]) was 0.116 nM, the EC50 (hGLP-1R; [4]) was 17.3 nM and the EC50 (hGCGR; [3]) was > 9950 nM. For the same compound, the EC50 (hGCGR; [4]) was > 9950 nM.

— patent US20230265151A1, “GIP/GLP1 CO-AGONIST COMPOUNDS” (priority 2020, published 2023)
